Data from patent US11945813B2, “5-substituted 4-amino-1H-benzo[c][1,2,6]thiadiazine 2,2-dioxides and formulations and uses thereof” (Firmenich Incorporated, priority 2018, dated 2024).

Target: T1, T1R2/T1R3 taste receptor (Homo sapiens, UniProt Q8TE23)
T1 sequence (Q8TE23 20-839): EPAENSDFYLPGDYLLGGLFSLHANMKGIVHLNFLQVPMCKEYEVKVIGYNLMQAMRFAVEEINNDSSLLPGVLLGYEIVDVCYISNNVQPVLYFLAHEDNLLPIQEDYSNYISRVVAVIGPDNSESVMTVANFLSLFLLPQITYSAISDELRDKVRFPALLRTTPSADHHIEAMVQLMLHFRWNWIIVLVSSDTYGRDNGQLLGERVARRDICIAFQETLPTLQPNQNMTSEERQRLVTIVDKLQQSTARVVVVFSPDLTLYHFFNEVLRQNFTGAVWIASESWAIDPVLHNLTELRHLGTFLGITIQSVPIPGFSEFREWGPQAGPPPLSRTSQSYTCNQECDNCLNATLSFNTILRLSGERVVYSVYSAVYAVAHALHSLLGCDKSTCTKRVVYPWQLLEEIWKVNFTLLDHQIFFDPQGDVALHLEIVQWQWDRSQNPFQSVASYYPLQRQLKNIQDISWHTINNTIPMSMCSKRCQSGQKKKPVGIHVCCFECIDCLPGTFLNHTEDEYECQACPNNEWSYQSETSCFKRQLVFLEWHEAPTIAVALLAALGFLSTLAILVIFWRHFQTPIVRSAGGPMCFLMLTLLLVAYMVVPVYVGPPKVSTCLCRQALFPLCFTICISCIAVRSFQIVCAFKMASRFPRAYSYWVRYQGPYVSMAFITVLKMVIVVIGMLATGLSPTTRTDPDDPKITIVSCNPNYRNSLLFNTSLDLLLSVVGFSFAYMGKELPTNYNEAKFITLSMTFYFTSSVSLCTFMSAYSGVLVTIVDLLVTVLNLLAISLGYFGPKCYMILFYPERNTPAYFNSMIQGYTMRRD
T1 sequence (Q7RTX0 21-852 partner): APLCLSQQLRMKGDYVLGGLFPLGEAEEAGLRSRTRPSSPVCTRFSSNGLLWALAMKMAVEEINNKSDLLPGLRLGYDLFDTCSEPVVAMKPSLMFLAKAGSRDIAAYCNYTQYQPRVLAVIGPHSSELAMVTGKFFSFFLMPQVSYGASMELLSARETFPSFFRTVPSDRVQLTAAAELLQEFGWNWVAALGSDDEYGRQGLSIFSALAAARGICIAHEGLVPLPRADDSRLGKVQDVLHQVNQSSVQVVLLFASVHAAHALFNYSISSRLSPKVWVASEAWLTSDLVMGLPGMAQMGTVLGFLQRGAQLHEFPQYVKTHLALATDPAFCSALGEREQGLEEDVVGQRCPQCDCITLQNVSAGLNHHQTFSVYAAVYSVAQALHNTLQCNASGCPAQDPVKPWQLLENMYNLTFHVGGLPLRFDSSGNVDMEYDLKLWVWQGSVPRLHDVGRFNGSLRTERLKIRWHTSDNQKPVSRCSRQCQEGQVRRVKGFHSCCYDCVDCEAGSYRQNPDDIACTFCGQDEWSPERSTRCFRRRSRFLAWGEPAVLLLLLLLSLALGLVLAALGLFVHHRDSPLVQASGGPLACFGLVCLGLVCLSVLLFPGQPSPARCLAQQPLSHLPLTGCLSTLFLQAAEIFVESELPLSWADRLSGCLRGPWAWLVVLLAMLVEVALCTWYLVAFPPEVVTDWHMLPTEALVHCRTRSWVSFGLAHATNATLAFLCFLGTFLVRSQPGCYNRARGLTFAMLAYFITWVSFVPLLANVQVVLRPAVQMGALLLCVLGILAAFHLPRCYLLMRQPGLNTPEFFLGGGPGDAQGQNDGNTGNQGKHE
Test: Receptor-based assay: sweetener EC50 alone and with test compound (enhancement ratio)
Assay type: cell-based
Conditions: for Fructose Enhancement EC50 Ratio: sweetener fructose; for Sucralose Enhancement EC50 Ratio: sweetener sucralose; for Sucrose Enhancement EC50 Ratio: sweetener sucrose
Protocol: Potencies (EC50 values) for the sweeteners sucrose, sucralose, and fructose were measured against the T1R2/T1R3 taste receptor. EC50 was determined using the sweetener alone and in the presence of 3 μM, 10 μM, or 50 μM of test compound. EC50 ratios were calculated by the ratio of potency with and without the test compound. An “A” value indicates an enhancement ratio of greater than 20. A “B” value indicates an enhancement ratio from 10 to 20. A “C” value indicates an enhancement ratio greater than 1 and less than 10.

Row | Compound | Fructose Enhancement EC50 Ratio (10 μM test compound) | Fructose Enhancement EC50 Ratio (50 μM test compound) | Sucralose Enhancement EC50 Ratio (10 μM test compound) | Sucralose Enhancement EC50 Ratio (50 μM test compound) | Sucrose Enhancement EC50 Ratio (3 μM test compound) | Sucrose Enhancement EC50 Ratio (10 μM test compound) | Sucrose Enhancement EC50 Ratio (50 μM test compound)
1 | NC1=NS(=O)(=O)Nc2cccc(OC[C@H]3CCCN(c4cc(C(=O)NC5CCCCC5)ccn4)C3)c21 [Compound 609] | C (A “C” value indicates an enhancement ratio greater than 1 and less than 10) | C (A “C” value indicates an enhancement ratio greater than 1 and less than 10) | B (A “B” value indicates an enhancement ratio from 10 to 20) | B (A “B” value indicates an enhancement ratio from 10 to 20) | C (A “C” value indicates an enhancement ratio greater than 1 and less than 10) | C (A “C” value indicates an enhancement ratio greater than 1 and less than 10) | C (A “C” value indicates an enhancement ratio greater than 1 and less than 10)
2 | NC1=NS(=O)(=O)Nc2cccc(OC[C@H]3CCCN(c4ccc(C(=O)NCCO)cn4)C3)c21 [Compound 503] | – | – | A (An “A” value indicates an enhancement ratio of greater than 20) | – | C (A “C” value indicates an enhancement ratio greater than 1 and less than 10) | C (A “C” value indicates an enhancement ratio greater than 1 and less than 10) | C (A “C” value indicates an enhancement ratio greater than 1 and less than 10)
3 | Cc1cnc(NC(C)(C)COc2cccc3c2C(N)=NS(=O)(=O)N3)nc1 [Compound 100, 4-amino-5-(2-methyl-2-((5-methylpyrimidin-2-yl)amino)propoxy)-1H-benzo[c][1,2,6]thiadiazine 2,2-dioxide] | – | – | A (An “A” value indicates an enhancement ratio of greater than 20) | A (An “A” value indicates an enhancement ratio of greater than 20) | C (A “C” value indicates an enhancement ratio greater than 1 and less than 10) | C (A “C” value indicates an enhancement ratio greater than 1 and less than 10) | C (A “C” value indicates an enhancement ratio greater than 1 and less than 10)
4 | NC1=NS(=O)(=O)Nc2cccc(OC[C@H]3CCCN(c4cc(C(=O)O)ccn4)C3)c21 [Compound 303] | – | C (A “C” value indicates an enhancement ratio greater than 1 and less than 10) | C (A “C” value indicates an enhancement ratio greater than 1 and less than 10) | A (An “A” value indicates an enhancement ratio of greater than 20) | C (A “C” value indicates an enhancement ratio greater than 1 and less than 10) | C (A “C” value indicates an enhancement ratio greater than 1 and less than 10) | C (A “C” value indicates an enhancement ratio greater than 1 and less than 10)
5 | CN(C)CCNC(=O)c1ccc(N2CCC[C@H](COc3cccc4c3C(N)=NS(=O)(=O)N4)C2)nc1 [Compound 505] | – | C (A “C” value indicates an enhancement ratio greater than 1 and less than 10) | C (A “C” value indicates an enhancement ratio greater than 1 and less than 10) | A (An “A” value indicates an enhancement ratio of greater than 20) | C (A “C” value indicates an enhancement ratio greater than 1 and less than 10) | C (A “C” value indicates an enhancement ratio greater than 1 and less than 10) | C (A “C” value indicates an enhancement ratio greater than 1 and less than 10)
6 | Cc1cnc(N2CCC[C@H](COc3cccc4c3C(N)=NS(=O)(=O)N4)C2)nc1 [Compound 304] | C (A “C” value indicates an enhancement ratio greater than 1 and less than 10) | C (A “C” value indicates an enhancement ratio greater than 1 and less than 10) | A (An “A” value indicates an enhancement ratio of greater than 20) | A (An “A” value indicates an enhancement ratio of greater than 20) | C (A “C” value indicates an enhancement ratio greater than 1 and less than 10) | C (A “C” value indicates an enhancement ratio greater than 1 and less than 10) | C (A “C” value indicates an enhancement ratio greater than 1 and less than 10)
7 | CC(C)NC(=O)c1cccc(N2CCC[C@H](COc3cccc4c3C(N)=NS(=O)(=O)N4)C2)n1 [Compound 407] | C (A “C” value indicates an enhancement ratio greater than 1 and less than 10) | C (A “C” value indicates an enhancement ratio greater than 1 and less than 10) | – | – | – | B (A “B” value indicates an enhancement ratio from 10 to 20) | C (A “C” value indicates an enhancement ratio greater than 1 and less than 10)
8 | NC1=NS(=O)(=O)Nc2cccc(OC[C@H]3CCCN(c4cccc(C(=O)O)n4)C3)c21 [Compound 301, (S)-6-(3-(((4-amino-2,2-dioxido-1H-benzo[c][1,2,6]thiadiazin-5-yl)oxy)methyl)piperidin-1-yl)picolinic acid] | – | – | A (An “A” value indicates an enhancement ratio of greater than 20) | A (An “A” value indicates an enhancement ratio of greater than 20) | C (A “C” value indicates an enhancement ratio greater than 1 and less than 10) | C (A “C” value indicates an enhancement ratio greater than 1 and less than 10) | C (A “C” value indicates an enhancement ratio greater than 1 and less than 10)
9 | NC1=NS(=O)(=O)Nc2cccc(OC[C@H]3CCCN(c4cc(C(=O)NC5CCCC5)ccn4)C3)c21 [Compound 608] | C (A “C” value indicates an enhancement ratio greater than 1 and less than 10) | C (A “C” value indicates an enhancement ratio greater than 1 and less than 10) | A (An “A” value indicates an enhancement ratio of greater than 20) | A (An “A” value indicates an enhancement ratio of greater than 20) | C (A “C” value indicates an enhancement ratio greater than 1 and less than 10) | C (A “C” value indicates an enhancement ratio greater than 1 and less than 10) | B (A “B” value indicates an enhancement ratio from 10 to 20)
10 | NC1=NS(=O)(=O)Nc2cccc(OC[C@H]3CCCN(c4ccc(C(=O)NC5CC5)cn4)C3)c21 [Compound 507] | – | C (A “C” value indicates an enhancement ratio greater than 1 and less than 10) | A (An “A” value indicates an enhancement ratio of greater than 20) | A (An “A” value indicates an enhancement ratio of greater than 20) | C (A “C” value indicates an enhancement ratio greater than 1 and less than 10) | C (A “C” value indicates an enhancement ratio greater than 1 and less than 10) | C (A “C” value indicates an enhancement ratio greater than 1 and less than 10)
